Test results reported in US10969380B2, “Simultaneous detection of cannibalism and senescence as prognostic marker for cancer” (Institut Gustave-Roussy, priority 2012, dated 2021).

Columns and labels:
Type in all cases: cell-based, human
HCT116 cells [1] = assay: Cell-in-cell structures (cellular cannibalism) by confocal microscopy of CMFDA/CMTMR-labelled cocultures; conditions: for generation of cell-in-cell structures after supplementation with nucleotide: ATP or UTP supplementation, ROCK-dependent; for generation of cell-in-cell structures after TP53 inactivation in presence of inhibitor: TP53 inactivated by PFT-α, knockdown or knockout, 20 μM Y27632 or 100 μM z-VAD
Description: FIG. 1. Identification of TP53 as repressor of cellular cannibalism. (A) Schematic representation of experimental procedure used to evaluate the ability to tumor suppressive depletion to enhance cell in cell internalization. (B) Frequencies of cell-in-cell structures induced by depletion of tumor suppressive proteins in HCT116. After 48 hours of transfection indicated siRNA, colorectal HCT116 cells were stained with CMTMR and CMFDA cell trachers, mixed and cultured during 24 hours. Quantification of cell-in-cell structures induced by depletions of tumor suppressor proteins was realized by confocal microscopy. The frequencies of cell-in-cell structures were determined for at least 300 cells in 3 independent experiments (mean+/−s.e.m, p<0.001). (C) Detection of cell-in-cell structures induced by depletion of TP53, as visualized by confocal microscopy. […] Representative micrographs of xy (scale bar, 5 μm), xz (scale bar, 4 μm) and yz (scale bar, 1 μm) optical sections are shown. Images are representative of at least four independent experiments. (D) Representative micrographs of cell-in-cell structures showing that after depletion of TP53 by two specific siRNAs, (red) CMTR labeled HCT116 cells internalized (red) CMTR labeled HCT116 cells (noted R(R)) or (green) CMFDA labeled HCT116 cells (noted R(G)), and (green) CMFDA labeled HCT116 cells engulfed (red) CMTR labeled HCT116 cells (noted G(R)) or (green) CMFDA labeled HCT116 cells (noted G(G)) (scale, 5 μm). (E) Frequencies of cell-in-cell structures showing R(R), R(G), G(R) or G(G) cell internalization detected after depletion of TP53 by two distinct siRNAs (as compare to control). The frequencies of cell-in-cell structures were determined for at least 300 cells in 3 independent experiments (mean+/−s.e.m, p<0.001). (F) Cell-in-cell structures induced by 10 μM PFT-α, TP53 knockdown, or TP53 knockout in HCT116. Cell-in-cell structures were identified by b-catenin (white), CMFDA (green) and CMTMR (red) staining of internalizing HCT116 cells. Images are representative of at least four independent experiments (scale bar in a, 5 μm and scale bar in b 1 μm). (G) Frequencies of cell-in-cell structures induced by 10 μM PFT-α, TP53 knockdown, or TP53 knockout in HCT116 in presence or in absence of 20 μM of ROCK inhibitor (Y27632) or 100 μM of pan-caspase inhibitor (z-VAD). The frequencies of cell-in-cell structures were determined for at least 300 cells in 3 independent experiments (mean+/−s.e.m, p<0.001). (H) Detection of cell-in-cell structures in TP53 depleted human diploid fibroblasts strain WI38, as visualized by confocal microscopy. […] Representative micrographs of xy (scale bar, 5 μm), xz (scale bar, 4 μm) and yz (scale bar, 1 μm) optical sections are shown. Images are representative of at least four independent experiments. (1) Frequencies of cell-in-cell structures induced by depletion of TP53 in human diploid fibroblasts strain WI38. The frequencies of cell-in-cell structures were determined for at least 300 cells in 3 independent experiments (mean+/−s.e.m, p<0.001).
After inactivation of TP53 or Δ133TP53, primary human fibroblasts, primary human keratinocytes, colorectal carcinoma Tp53^+/+ HCT116 cells and pancreatic PANC813 cells were incubated during 24 hours in presence or in absence of indicated concentrations of the pharmacological inhibitor of purinergic P2Y2 receptor Kaempferol (Sigma), the pharmacological inhibitor of ROCK Y27632 (Sigma) or the pan-caspase inhibitor zVAD-fmk (100 uM, BD Biosciences), ATP, UTP and soluble apyrase used in indicated experiments were obtained from Sigma.
After 48 hours of transfection with specific indicated siRNA, cells were stained with 10 μM of 5-chloromethylfluorescein diacetate (Cell Tracker Green CMFDA, Invitrogen) or with 10 μM of 5-(and-6)-(((4-Chloromethyl)Benzoyl)Amino)Tetramethylrhodamine (CMTMR, Invitrogen) and cocultured for indicated time. […]

caspase-3 = assay: Cleavage of caspase-3 by immunoblot; set-up: dose or concentration left out as unconfirmed; conditions: cisplatin, positive control
Description: FIG. 7. Effects of TP53 inactivation on cellular cannibalism. (A) Detection of cell-in-cell structures induced by depletion of TP53, as visualized by confocal microscopy. […] Images are representative of at least four independent experiments. (B) Detection of cell-in-cell structures induced by depletion of TP53 by light microscopy. (C) Time-lapse imaging of cellular cannibalism detected after depletion of TP53 on HCT116 cells. After 48 hours of transfection with siRNA against TP53, cells were stained as previously described with CMFDA and CMTMR cell trackers and cocultured under time-lapse confocal videomicroscopy. Indicated numbers represent hours and minutes. […] After 48 hours of TP53 knockdown, cleavage of caspase-3 was analyzed by immunoblot. […] Mitotic events and cellular cannibalism were detected and recorded during approximately fifteen hours. […] ROCK activity was determined by detecting the phosphorylation of myosin light chain 2 on serine 19 (MLC2S19*). […] TP53 knocked down, or TP53 knocked out HCT116 cells were analyzed for MLC2S19*, MLC2 or TP53 by immunoblot. […] Tp53^−/+ and Tp53^−/− HCT116 cells are fixed and analyzed by electron microscopy. […] HCT116 cells were transfected with specific siRNAs for TP53 during 48 hours and expression of TP53 (H) or MLCS19* (I) were determined by immunoblots. […]

[2] = tested on: P2Y2 purinergic receptors; assay: P2Y2 expression by immunoblot; conditions: HCT116 treated with 10 μM CDDP
HCT116 cells [3] = assay: Release of ATP by ATP-dependent bioluminescence (Enliten ATP assay); conditions: HCT116 treated with 10 μM CDDP
Description: FIG. 11. Extracellular ATP and purinergic receptor P2Y2 participate in cellular cannibalism. (A.) Detection of cellular cannibalism after cis-platinium (CDDP) or γ-irradiation (IR) treatment. After 24 hours treatment with 10 μM CDDP or irradiation (IR) with 4 grays, half cell population of colon carcinoma HCT116 cells were stained with green CMFDA cell tracker or with red CMTMR cell tracker and analyzed for cellular cannibalism by confocal microscopy after 24 hours of coculture in presence or in absence of 20 μM of ROCK inhibitor (YI27632) or 100 μM of pan-caspase inhibitor (zVAD). The frequencies of cannibal cells were determined for at least 300 cells in 3 independent experiments (mean+/−s.e.m, *p<0.001). (B-D) Detection of ATP release after stimulation with senescent-induced stresses. Release of ATP on HCT116 cells treated with 10 μM CDDP (B) or 4 gray γ-irradiation (IR) (B) Of depleted for p53 (C) or Δ133p53 (C) was determined 2 hours after the beginning of coculture using ATP-dependent bioluminescence in 3 independent experiments, (D) Effect of ROCK inhibitor on ATP release detected after p53 inactivation. Release of ATP was detected as previously described in presence or in absence of 20 μM of Y27632 (mean+/−s.e.m, *p<0.001). […] The frequencies of cell-in-cell structures were determined for at least 300 cells in 3 independent experiments (mean+/−s.e.m, *p<0.001). […]

Compound: Nc1ncnc2c1ncn2C1OC(CO[P@SP3](=O)(O)O[P@SP3](=O)(O)O[P@SP3](=O)(O)O)C(O)C1O (stereo not drawn) [ATP, Adenosine-5′-triphosphate]
- generation of cell-in-cell structures after supplementation with nucleotide (HCT116 cells [1]; HCT116): strongly enhanced the ROCK-dependent generation of cell-in-cell structures

Compound: O=c1ccn([C@@H]2O[C@H](COP(=O)(O)OP(=O)(O)OP(=O)(O)O)[C@@H](O)[C@H]2O)c(=O)[nH]1 [UTP]
- generation of cell-in-cell structures after supplementation with nucleotide (HCT116 cells [1]; HCT116): strongly enhanced the ROCK-dependent generation of cell-in-cell structures

Compound: C[C@@H](N)[C@H]1CC[C@H](C(=O)Nc2ccncc2)CC1 [Y26732]
- generation of cell-in-cell structures after TP53 inactivation in presence of inhibitor (HCT116 cells [1]): prevented the generation of cell-in-cell structures

Compound: N.N.[Cl][Pt][Cl] [cisplatin]
- cleavage of caspase-3 (caspase-3): intense cleavage of caspase-3
- expression of the P2Y2 purinergic receptors [2]: enhanced the expression of the P2Y2 purinergic receptors
- release of ATP (HCT116 cells [3]): released ATP shortly after treatments

Compound: Cc1ccc(C(=O)Cn2c3c(sc2=N)CCCC3)cc1 [pifithrin-α]
- cell-in-cell structures induced by pharmacological inactivation of TP53 (HCT116 cells [1]; HCT116, 10 μM PFT-α, 24 hours coculture): induced cell-in-cell structures

Compound: Z-VAD-fmk
- generation of cell-in-cell structures after TP53 inactivation in presence of inhibitor (HCT116 cells [1]): not affected

Compound: apyrase
- cellular internalization induced by the depletion of TP53 or Δ133TP53 (HCT116 cells [1]; HCT116, different concentrations of apyrase): reduced cellular internalization
